The values that follow are results of earlier work, collected in patent US12514906B2, “Use of C-type natriuretic peptide variants to treat skeletal dysplasia” (BIOMARIN PHARMACEUTICAL INC., priority 2015, dated 2026).

Data set [1] deals with NPR-B. Conditions: CNP-53 compared with CNP-22.
In data set [2] the test system is cGMP production. Conditions: CNP-53 compared with CNP-22.

Where no end group is shown, it is not given here.

With “CNP: mature 22-amino acid wild type C-type natriuretic peptide”, the plasma half-life (in vivo in humans) was 2.6 min. In addition, the in vivo half-life (normal human) was 2.6 min. In addition, the “binding to NPR-B” value in data set [1] is “bind similarly”. In addition, the “induction of cGMP production” value in data set [2] was “dose-dependent and similar fashion”.
As to “CNP-53: active 53-amino acid peptide generated from pro-CNP by furin cleavage (DLRVDTKSRAAWARLLQEHPNARKYKGANKKGLSKGCFGLKLDRIGSMSGLGC; ends and bridges not checked; cysteine pairing not given here; UniProt P23582 74-126, looked up)”, the “binding to NPR-B” value in data set [1] is reported as “bind similarly”. Moreover, the “induction of cGMP production” value in data set [2] was “dose-dependent and similar fashion”.
